According to ChEMBL document CHEMBL3714716, “Modulators of the relaxin receptor 1” (2015):
In brackets after ≈: the same amount, converted by molar mass. Activity calls are given as the source filed them. The rule behind the calls is not given here.

Key:
Relaxin receptor 2 [1] = target: T1, Relaxin receptor 2 (Homo sapiens, UniProt Q8WXD0); experiment: Agonist activity at RXFP2 receptor (unknown origin) expressed in HEK293 cells assessed as stimulation of cAMP production incubated for 30 mins by HTRF assay relative to control; format: functional, cell-based
HEK293 = experiment: Cytotoxic activity against HEK293 cells assessed as reduction in cell viability by measuring ATP level incubated for 72 hrs by ATP cytotoxicity assay; format: cell-based, Homo sapiens; conditions: Homo sapiens, HEK293, 72 h; read-out: EC50
Relaxin receptor 1 [2] = target: T2, Relaxin receptor 1 (Homo sapiens, UniProt Q9HBX9); experiment: Agonist activity at RXFP1 receptor (unknown origin) expressed in HEK293 cells assessed as stimulation of cAMP production incubated for 30 mins by TR-FRET based HTRF assay; format: functional, cell-based
T2 sequence (Q9HBX9 whole entry): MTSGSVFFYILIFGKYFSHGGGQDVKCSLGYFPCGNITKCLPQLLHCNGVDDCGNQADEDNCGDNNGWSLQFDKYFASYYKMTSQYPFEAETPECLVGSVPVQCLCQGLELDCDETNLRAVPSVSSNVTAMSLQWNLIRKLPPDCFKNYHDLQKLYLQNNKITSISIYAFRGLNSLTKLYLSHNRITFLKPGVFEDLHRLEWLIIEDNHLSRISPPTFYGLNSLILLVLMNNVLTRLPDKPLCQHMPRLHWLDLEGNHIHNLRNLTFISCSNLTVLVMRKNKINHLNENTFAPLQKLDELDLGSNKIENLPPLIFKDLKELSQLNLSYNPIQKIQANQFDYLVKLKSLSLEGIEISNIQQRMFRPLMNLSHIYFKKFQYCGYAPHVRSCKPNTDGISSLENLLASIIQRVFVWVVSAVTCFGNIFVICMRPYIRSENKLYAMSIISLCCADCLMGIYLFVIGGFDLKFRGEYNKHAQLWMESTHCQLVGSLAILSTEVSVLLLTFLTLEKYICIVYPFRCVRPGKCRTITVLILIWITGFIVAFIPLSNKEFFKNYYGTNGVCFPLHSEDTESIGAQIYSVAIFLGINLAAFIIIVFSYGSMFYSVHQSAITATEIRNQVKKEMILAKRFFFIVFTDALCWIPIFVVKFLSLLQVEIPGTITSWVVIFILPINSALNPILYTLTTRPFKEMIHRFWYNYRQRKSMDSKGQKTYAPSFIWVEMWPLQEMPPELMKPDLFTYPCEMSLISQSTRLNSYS

[3] = target: T3, Vasopressin V1b receptor (Homo sapiens) (UniProt P47901); experiment: Agonist activity at vasopressin receptor 1b (unknown origin) expressed in HEK293 cells assessed as stimulation of cAMP production incubated for 30 mins by HTRF assay relative to control; format: functional, cell-based
T3 sequence (whole entry): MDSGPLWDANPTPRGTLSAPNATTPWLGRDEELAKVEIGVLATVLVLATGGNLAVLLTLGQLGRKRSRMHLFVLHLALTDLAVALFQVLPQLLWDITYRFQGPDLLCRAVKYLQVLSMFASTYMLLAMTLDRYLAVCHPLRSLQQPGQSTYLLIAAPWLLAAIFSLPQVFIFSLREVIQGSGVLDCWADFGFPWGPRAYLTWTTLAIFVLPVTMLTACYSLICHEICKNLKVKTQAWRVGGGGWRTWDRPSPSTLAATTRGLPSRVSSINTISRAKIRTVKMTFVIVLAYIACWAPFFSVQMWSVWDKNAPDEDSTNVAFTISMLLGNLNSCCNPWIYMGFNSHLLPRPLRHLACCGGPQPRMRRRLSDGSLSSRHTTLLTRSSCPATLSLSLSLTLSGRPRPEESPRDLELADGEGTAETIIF

[4] = target: T4, Relaxin receptor 1 (Homo sapiens) (UniProt Q9HBX9); experiment: Agonist activity at RXFP1 receptor (unknown origin) expressed in HEK293 cells assessed as stimulation of cAMP production incubated for 30 mins by TR-FRET based HTRF assay relative to forskolin; format: functional, cell-based
T4 sequence (whole entry): T2 sequence (Q9HBX9 whole entry)

Relaxin receptor 2 [5] = target: T1, Relaxin receptor 2; experiment: Agonist activity at RXFP2 receptor (unknown origin) expressed in HEK293 cells assessed as stimulation of cAMP production incubated for 30 mins by HTRF assay; format: functional, cell-based
[6] = Solubility in PBS buffer; format: physicochemical
Vasopressin V1b receptor = target: T5, Vasopressin V1b receptor (Homo sapiens, UniProt P47901); experiment: Agonist activity at vasopressin receptor 1b (unknown origin) expressed in HEK293 cells assessed as stimulation of cAMP production incubated for 30 mins by HTRF assay; format: functional, cell-based
T5 sequence (P47901 whole entry): T3 sequence (whole entry)

[7] = Cytotoxic activity against HEK293 cells assessed as reduction in cell viability by measuring ATP level incubated for 72 hrs by ATP cytotoxicity assay relative to control; format: cell-based; conditions: human, read-out: %max
[8] = Stimulation of VEGF gene expression in human THP1 cells assessed as change in VEGF mRNA level incubated for 2 hrs by quantitative real time RT-PCR method relative to control; format: functional, cell-based; conditions: THP-1
Relaxin receptor 1 [9] = target: T2, Relaxin receptor 1; experiment: Agonist activity at RXFP1 receptor in human THP1 cells assessed as stimulation of cAMP production incubated for 30 mins by HTRF assay; format: functional, cell-based, THP-1

T1 sequence (Q8WXD0 whole entry): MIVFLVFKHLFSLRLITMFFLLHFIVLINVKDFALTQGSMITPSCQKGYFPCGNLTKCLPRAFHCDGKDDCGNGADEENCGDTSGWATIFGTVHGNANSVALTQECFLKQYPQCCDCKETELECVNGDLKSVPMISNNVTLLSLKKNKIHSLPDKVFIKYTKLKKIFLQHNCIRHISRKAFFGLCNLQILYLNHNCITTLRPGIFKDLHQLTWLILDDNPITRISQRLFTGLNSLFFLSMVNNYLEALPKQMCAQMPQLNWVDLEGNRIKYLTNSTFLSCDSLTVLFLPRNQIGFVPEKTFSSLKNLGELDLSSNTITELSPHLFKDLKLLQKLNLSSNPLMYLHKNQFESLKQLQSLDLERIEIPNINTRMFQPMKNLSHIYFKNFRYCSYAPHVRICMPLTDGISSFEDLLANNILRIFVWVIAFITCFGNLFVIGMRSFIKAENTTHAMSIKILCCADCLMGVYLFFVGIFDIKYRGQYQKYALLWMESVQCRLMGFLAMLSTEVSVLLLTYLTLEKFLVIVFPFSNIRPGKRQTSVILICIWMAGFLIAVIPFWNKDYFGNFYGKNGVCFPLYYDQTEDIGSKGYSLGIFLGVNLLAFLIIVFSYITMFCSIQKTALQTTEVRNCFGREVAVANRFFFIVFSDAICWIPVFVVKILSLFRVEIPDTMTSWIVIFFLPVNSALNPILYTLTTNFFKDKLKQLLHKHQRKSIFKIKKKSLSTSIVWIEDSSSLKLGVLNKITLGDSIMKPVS

Row | Compound | AC50 (Relaxin receptor 1 [2]; read-out: AC50) [µM] | %max [4] | also measured
1 | O=C(Nc1cccc(C(F)(F)F)c1)c1ccccc1NC(=O)C1CCCCC1 | 0.047 | 92% | %max (Relaxin receptor 2 [1]): < 30%; EC50 (HEK293): 59.3 µM; %max [3]: < 30%; AC50 (Relaxin receptor 2 [5]; hek293): Not Active; solubility [6]: 5.3 µM (≈ 2.07 µg/mL); AC50 (Vasopressin V1b receptor): Not Active; Emax at 72 h [7]: -53%
2 | CCOc1ccccc1C(=O)Nc1ccccc1C(=O)Nc1cccc(C(F)(F)F)c1 | 0.265 | 94% | fold change (FC) [8]: 1.9; EC50 (Relaxin receptor 1 [9]): 0.471 µM
3 | CCOc1ccccc1C(=O)Nc1ccccc1C(=O)Nc1cccc(S(=O)(=O)C(F)(F)F)c1 | – | 99% | fold change (FC) [8]: 2.3; EC50 (Relaxin receptor 1 [9]): 0.362 µM
4 | O=C(Nc1cccc(C(F)(F)F)c1)c1ccccc1NC(=O)c1cccc2nc[nH]c12 | 11.8 | 90% | %max (Relaxin receptor 2 [1]): < 30%; %max [3]: < 30%; AC50 (Relaxin receptor 2 [5]; hek293): Not Active; solubility [6]: 6.3 µM (≈ 2.67 µg/mL); AC50 (Vasopressin V1b receptor): Not Active; Emax at 72 h [7]: -76%
5 | O=C(Nc1cccc(S(=O)(=O)C(F)(F)F)c1)c1ccccc1NC(=O)c1ccccc1OCC(F)(F)F | 0.067 | 97% | fold change (FC) [8]: 1.3; EC50 (Relaxin receptor 1 [9]): 0.107 µM
6 | COc1ccccc1C(=O)Nc1ccccc1C(=O)Nc1cccc(SC(F)(F)F)c1 | 0.297 | 99% | fold change (FC) [8]: 1.2; EC50 (Relaxin receptor 1 [9]): 0.523 µM
7 | CCCOc1ccccc1C(=O)Nc1ccccc1C(=O)Nc1cccc(S(=O)(=O)C(F)(F)F)c1 | 0.052 | 98% | fold change (FC) [8]: 1.5; EC50 (Relaxin receptor 1 [9]): 0.105 µM
8 | O=C(Nc1ccc([N+](=O)[O-])cc1)c1ccccc1NC(=O)C1CCCCC1 | 74.7 | 56% | –
9 | CCOc1ccccc1C(=O)Nc1ccccc1C(=O)Nc1cccc(C(=N)N)c1 | – | inactive | AC50 (Relaxin receptor 1 [2]; hek293): Not Active
10 | CCOc1ccccc1C(=O)Nc1ccccc1C(=O)Nc1ccncc1 | 74.7 | 64% | –
11 | O=C(Nc1cccc(C(F)(F)F)c1)c1ccccc1OCCN1CCCCC1 | – | inactive | AC50 (Relaxin receptor 1 [2]; hek293): Not Active
12 | C/C=C/c1cccc(NC(=O)c2ccccc2NC(=O)c2ccccc2OCC)c1 | 2.11 | 84% | –
13 | COCCOc1ccccc1C(=O)Nc1ccccc1C(=O)Nc1cccc(C(F)(F)F)c1 | 0.747 | 98% | –
14 | O=C(Nc1cc(C(F)(F)F)ccc1F)c1ccccc1NC(=O)C1CCCCC1 | – | inactive | AC50 (Relaxin receptor 1 [2]; hek293): Not Active
15 | CC(C)Oc1ccccc1C(=O)Nc1ccccc1C(=O)Nc1cccc(C(F)(F)F)c1 | 0.471 | 99% | –
16 | O=C(Nc1cccc(C(F)(F)F)c1)c1ccccc1NC(=O)c1ccccc1OC(F)(F)F | 1.18 | 96% | –
17 | O=C(Nc1cccc(C(F)(F)F)c1)c1ccccc1NC(=O)c1cccc2ccccc12 | 5.93 | 81% | –
18 | N#Cc1cccc(C(=O)Nc2ccccc2C(=O)Nc2cccc(C(F)(F)F)c2)c1 | 2.1 | 96% | –
19 | CC(C)(C)OC(=O)Nc1ccccc1C(=O)Nc1cccc(C(F)(F)F)c1 | 5.29 | 79% | –
20 | O=C(Nc1cccc(C(F)(F)F)c1)c1ccccc1NC(=O)c1ccccc1OCCN1CCOCC1 | 4.71 | 98% | –

Row | Compound | AC50 (Relaxin receptor 1 [2]; read-out: AC50) [µM] | %max [4] | also measured
21 | O=C(Nc1ccccc1C(=O)Nc1cccc(C(F)(F)F)c1)c1ccc(Cl)cc1 | 2.65 | 95% | –
22 | CN(C)CCCOc1ccccc1C(=O)Nc1cccc(C(F)(F)F)c1 | – | inactive | AC50 (Relaxin receptor 1 [2]; hek293): Not Active
23 | O=C(Nc1cccc(C(F)(F)F)c1)c1ccccc1OCCN1CCOCC1 | – | inactive | AC50 (Relaxin receptor 1 [2]; hek293): Not Active
24 | CS(=O)(=O)c1cccc(NC(=O)c2ccccc2NC(=O)C2CCCCC2)c1 | 118 | 34% | –
25 | O=C(Nc1cccc(C(F)(F)F)c1)c1ccccc1NC(=O)c1ccccc1OCCN1CCCCC1 | 2.65 | 99% | –
26 | CN(C)CCCOc1ccccc1C(=O)Nc1ccccc1C(=O)Nc1cccc(C(F)(F)F)c1 | 59.3 | 66% | –
27 | O=C(NCc1cccs1)c1ccccc1NC(=O)C1CCCCC1 | 118 | 40% | –
28 | O=C(Nc1ccccc1C(=O)Nc1cccc(C(F)(F)F)c1)c1cc(C(F)(F)F)cc(C(F)(F)F)c1 | 4.2 | 94% | –
29 | O=C(NCc1ccc(C(F)(F)F)cc1)c1ccccc1NC(=O)C1CCCCC1 | – | inactive | AC50 (Relaxin receptor 1 [2]; hek293): Not Active
30 | O=C(Nc1ccc(Br)cc1)c1ccccc1NC(=O)C1CCCCC1 | 118 | 50% | –
31 | O=C(Nc1ccc(F)cc1)c1ccccc1NC(=O)C1CCCCC1 | 37.4 | 74% | –
32 | Cc1cccc(C(=O)Nc2ccccc2C(=O)Nc2cccc(C(F)(F)F)c2)c1 | 3.74 | 92% | –
33 | O=C(Nc1ccccc1)c1ccccc1NC(=O)C1CCCCC1 | 94 | 57% | –
34 | COc1ccccc1C(=O)Nc1ccccc1C(=O)Nc1cccc(S(C)(=O)=O)c1 | 6.66 | 95% | –
35 | CCOc1ccccc1C(=O)Nc1ccccc1CNc1cccc(S(=O)(=O)C(F)(F)F)c1 | 2.65 | 77% | –
36 | O=C(Nc1ccccc1C(=O)Nc1cccc(C(F)(F)F)c1)c1ccno1 | 14.9 | 93% | %max (Relaxin receptor 2 [1]): 38%; %max [3]: < 30%; AC50 (Relaxin receptor 2 [5]; read-out: AC50): 7.47 µM; solubility [6]: < 1.1 µM; AC50 (Vasopressin V1b receptor): Not Active; Emax at 72 h [7]: -73%
37 | COc1ccccc1C(=O)Nc1ccccc1C(=O)Nc1cccc(S(=O)(=O)C(F)(F)F)c1 | 0.188 | 99% | fold change (FC) [8]: 1.4; EC50 (Relaxin receptor 1 [9]): 0.358 µM
38 | O=C(Nc1cccc(SC(F)(F)F)c1)c1ccccc1NC(=O)C1CCCCC1 | 1.88 | 90% | –
39 | COc1ccccc1C(=O)Nc1ccccc1C(=O)Nc1cccc(N2CCCCC2)c1 | 5.29 | 77% | –
